According to patent publication US9102684B2, “Indolinone analogues” (Boehringer Ingelheim International GmbH, priority 2013, dated 2015):

Biological target: T1, BRD4 (Homo sapiens, UniProt O60885)
T1 construct: fused on or other part: GST tag, fused on for capture by the AlphaLISA Glutathione Acceptor Beads
Assay: BRD4-H4 tetraacetylated Peptide Inhibition AlphaScreen
Type: binding
Settings: GST-BRD4-BD1 (aa 44-168) or GST-BRD4-BD2 (aa 333-460) with biotinylated Acetyl-Histone H4 peptide; table does not state which bromodomain
Method: Biological Methods BRD4-H4 tetraacetylated Peptide Inhibition AlphaScreen
Compounds are diluted in serial dilution 1:5 in assay buffer from 10 mM stock in DMSO (100 μM start concentration) in white OptiPlate-384 (PerkinElmer). A mix consisting of 15 nM GST-BRD4-BD1 protein (aa 44-168) or 150 nM GST-BRD4-BD2 (aa 333-460) and 15 nM biotinylated Acetyl-Histone H4 (LysS, 8, 12, 16) peptide is prepared in assay buffer (50 mM HEPES pH=7.4; 25 mM NaCl; 0.05% Tween 20; 0.1% bovine serum albumin (BSA); 10 mM dithiothreitol (DTT)). 6 μl of the mix is added to the compound dilutions. Subsequently, 6 μl of premixed AlphaLISA Glutathione Acceptor Beads and AlphaScreen Streptavidin Donor Beads from PerkinElmer (in assay buffer at a concentration of 10 μg/ml each) are added and the samples are incubated for 30 min at RT in the dark (shaking 300 rpm). Afterwards, the signal is measured in a PerkinElmer Envision HTS
Multilabel Reader using the AlphaScreen protocol from PerkinElmer. Each plate contains negative controls where biotinylated Acetyl-Histone H4 peptide and GST-BRD4-BD1 or GST-BRD4-BD2 are left out and replaced by assay buffer. Negative control values are entered as low basis value when using the software GraphPad Prism for calculations. Furthermore, a positive control (probe molecule JQ1+ with protein/peptide mix) is pipetted. Determination of IC50 values are carried out using GraphPad Prism 3.03 software (or updates thereof).

SMILES	IC50 [nM]
Cc1noc(C)c1-c1ccc2c(c1)[C@](O)(c1ccccc1CN1CCOCC1)C(=O)N2 [Example 24, 5-(3,5-Dimethyl-isoxazol-4-yl)-3-hydroxy-3-(2-morpholin-4-ylmethyl-phenyl)-1,3-dihydro-indol-2-one]	41
Cc1noc(C)c1-c1ccc2c(c1)C(O)(c1cccnc1)C(=O)N2 (centres unmarked) [Example 31, 5-(3,5-Dimethyl-isoxazol-4-yl)-3-hydroxy-3-pyridin-3-yl-1,3-dihydro-indol-2-one]	395
Cc1noc(C)c1-c1ccc2c(c1)C(O)(c1ccccc1)C(=O)N2 (centres unmarked) [Example 21, 5-(3,5-Dimethyl-isoxazol-4-yl)-3-hydroxy-3-phenyl-1,3-dihydro-indol-2-one]	259
Cc1ccccc1C1(O)C(=O)Nc2ccc(-c3c(C)noc3C)cc21 (centres unmarked) [Example 33, 5-(3,5-Dimethyl-isoxazol-4-yl)-3-hydroxy-3-o-tolyl-1,3-dihydro-indol-2-one]	1060
Cc1noc(C)c1-c1ccc2c(c1)C(c1ccccc1)N(CCCN(C)C)C2=O (centres unmarked) [Example 3, 2-(3-Dimethylamino-propyl)-5-(3,5-dimethyl-isoxazol-4-yl)-3-phenyl-2,3-dihydro-isoindol-1-one]	43
Cc1noc(C)c1-c1ccc2c(c1)C(O)(C1CCCC1)C(=O)N2 (centres unmarked) [Example 27, 3-Cyclopentyl-5-(3,5-dimethyl-isoxazol-4-yl)-3-hydroxy-1,3-dihydro-indol-2-one]	698
Cc1noc(C)c1-c1ccc2c(c1)C1(c3ccccc3)OCCCN1C2=O (centres unmarked) [Example 15, 9-(3,5-Dimethyl-isoxazol-4-yl)-10b-phenyl-3,4-dihydro-2H,10bH-[1,3]oxazino[2,3-a]isoindol-6-one]	36
Cc1noc(C)c1-c1ccc2c(c1)C(O)(c1ccc(F)c(F)c1)C(=O)N2 (centres unmarked) [Example 28, 3-(3,4-Difluoro-phenyl)-5-(3,5-dimethyl-isoxazol-4-yl)-3-hydroxy-1,3-dihydro-indol-2-one]	203
Cc1noc(C)c1-c1ccc2c(c1)C(O)(C1CCCCC1)C(=O)N2 (centres unmarked) [Example 30, 3-cyclohexyl-5-(3,5-dimethyl-isoxazol-4-yl)-3-hydroxy-1,3-dihydro-indol-2-one]	196
Cc1noc(C)c1-c1ccc2c(c1)C1(c3ccccc3)OCCN1C2=O (centres unmarked) [Example 14, 8-(3,5-Dimethyl-isoxazol-4-yl)-9b-phenyl-2,3-dihydro-9bH-oxazolo[2,3-a]isoindol-5-one]	72
Cc1noc(C)c1-c1ccc2c(c1)C(O)(c1ccccc1CN1CCOCC1)C(=O)N2 (centres unmarked) [Example 23, 5-(3,5-Dimethyl-isoxazol-4-yl)-3-hydroxy-3-(2-morpholin-4-ylmethyl-phenyl)-1,3-dihydro-indol-2-one]	176
Cc1noc(C)c1-c1ccc2c(c1)C(O)(C1CCOCC1)C(=O)N2 (centres unmarked) [Example 34, 5-(3,5-Dimethyl-isoxazol-4-yl)-3-hydroxy-3-(tetrahydro-pyran-4-yl)-1,3-dihydro-indol-2-one]	1570
Cc1noc(C)c1-c1ccc2c(c1)C(C)(c1ccccc1)C(=O)N2 (centres unmarked) [Example 18, 5-(3,5-Dimethyl-isoxazol-4-yl)-3-methyl-3-phenyl-1,3-dihydro-indol-2-one]	54
Cc1noc(C)c1-c1ccc2c(c1)C(C)(c1ccccc1)N(C)C2=O (centres unmarked) [Example 10, 5-(3,5-Dimethyl-isoxazol-4-yl)-2,3-dimethyl-3-phenyl-2,3-dihydro-isoindol-1-one]	38
Cc1noc(C)c1-c1ccc2c(c1)C(O)(c1ccccn1)C(=O)N2 (centres unmarked) [Example 32, 5-(3,5-Dimethyl-isoxazol-4-yl)-3-hydroxy-3-pyridin-2-yl-1,3-dihydro-indol-2-one]	332
COc1cc(F)cc(C2c3cc(-c4c(C)noc4C)ccc3C(=O)N2C)c1 (centres unmarked) [Example 1, 5-(3,5-Dimethyl-isoxazol-4-yl)-3-(3-fluoro-5-methoxy-phenyl)-2-methyl-2,3-dihydro-isoindol-1-one]	380
Cc1noc(C)c1-c1ccc2c(c1)C(O)(c1cccs1)C(=O)N2 (centres unmarked) [Example 26, 5-(3,5-Dimethyl-isoxazol-4-yl)-3-hydroxy-3-thiophen-2-yl-1,3-dihydro-indol-2-one]	320
Cc1noc(C)c1-c1ccc2c(c1)C(O)(c1ccc3c(c1)OCO3)C(=O)N2 (centres unmarked) [Example 29, 3-Benzo[1,3]dioxol-5-yl-5-(3,5-dimethyl-isoxazol-4-yl)-3-hydroxy-1,3-dihydro-indol-2-one]	541
Cc1noc(C)c1-c1ccc2c(c1)C(O)(c1ccc(Cl)cc1)C(=O)N2 (centres unmarked) [Example 25, 3-(4-Chloro-phenyl)-5-(3,5-dimethyl-isoxazol-4-yl)-3-hydroxy-1,3-dihydro-indol-2-one]	295
Cc1noc(C)c1-c1ccc2c(c1)C(C1CCCCC1)N(C)C2=O (centres unmarked) [Example 6, 3-Cyclohexyl-5-(3,5-dimethyl-isoxazol-4-yl)-2-methyl-2,3-dihydro-isoindol-1-one]	43
Cc1noc(C)c1-c1ccc2c(c1)[C@](O)(c1ccccc1)C(=O)N2 [Example 22, 5-(3,5-Dimethyl-isoxazol-4-yl)-3-hydroxy-3-phenyl-1,3-dihydro-indol-2-one]	48
Cc1noc(C)c1-c1ccc2c(c1)C(c1ccccc1)N(C)C2=O (centres unmarked) [Example 8, 5-(3,5-Dimethyl-isoxazol-4-yl)-2-methyl-3-phenyl-2,3-dihydro-isoindol-1-one]	55
Cc1cncc(C2(O)C(=O)Nc3ccc(-c4c(C)noc4C)cc32)c1 (centres unmarked) [Example 35, 5-(3,5-Dimethyl-isoxazol-4-yl)-3-hydroxy-3-(5-methyl-pyridin-3-yl)-1,3-dihydro-indol-2-one]	1040
Cc1noc(C)c1-c1ccc2c(c1)C(c1ccccc1)N(C1CCN(C)CC1)C2=O (centres unmarked) [Example 2, 5-(3,5-Dimethyl-isoxazol-4-yl)-2-(1-methyl-piperidin-4-yl)-3-phenyl-2,3-dihydro-isoindol-1-one]	57

Continued, values first:

IC50 [nM]	SMILES
2490	Cc1cc(-c2c(C)noc2C)cc2c1C(=O)N(C)C2c1ccccc1 (centres unmarked) [Example 11, 5-(3,5-Dimethyl-isoxazol-4-yl)-2,7-dimethyl-3-phenyl-2,3-dihydro-isoindol-1-one]
242	Cc1noc(C)c1-c1ccc2c(c1)C(C)(c1ccccc1)C(=O)N2c1cccnc1 (centres unmarked) [Example 20, 5-(3,5-Dimethyl-isoxazol-4-yl)-3-methyl-3-phenyl-1-pyridin-3-yl-1,3-dihydro-indol-2-one]
193	Cc1noc(C)c1-c1ccc2c(c1)C(c1ccccc1)OC2=O (centres unmarked) [Example 13, 5-(3,5-Dimethyl-isoxazol-4-yl)-3-phenyl-3H-isobenzofuran-1-one]
229	Cc1noc(C)c1-c1ccc2c(c1)C(c1cc(F)cc(F)c1)N(C)C2=O (centres unmarked) [Example 5, 3-(3,5-Difluoro-phenyl)-5-(3,5-dimethyl-isoxazol-4-yl)-2-methyl-2,3-dihydro-isoindol-1-one]
1090	Cc1noc(C)c1-c1ccc2c(c1)C(C1CCC3(CCC3)CC1)N(C)C2=O (centres unmarked) [Example 7, 5-(3,5-Dimethyl-isoxazol-4-yl)-2-methyl-3-spiro[3.5]non-7-yl-2,3-dihydro-isoindol-1-one]
14	Cc1noc(C)c1-c1ccc2c(c1)[C@H](c1ccccc1)N(C)C2=O [Example 9, (S)-5-(3,5-Dimethyl-isoxazol-4-yl)-2-methyl-3-phenyl-2,3-dihydro-isoindol-1-one]
1080	Cc1noc(C)c1-c1ccc2c(c1C)C(c1ccccc1)OC2=O (centres unmarked) [Example 17, 5-(3,5-Dimethyl-isoxazol-4-yl)-4-methyl-3-phenyl-3H-isobenzofuran-1-one]
350	COc1c(-c2c(C)noc2C)ccc2c1C(c1ccccc1)OC2=O (centres unmarked) [Example 16, 5-(3,5-Dimethyl-isoxazol-4-yl)-4-methoxy-3-phenyl-3,1-isobenzofuran-1-one]
275	Cc1noc(C)c1-c1ccc2c(c1)C(C)(c1ccccc1)C(=O)N2C (centres unmarked) [Example 19, 5-(3,5-Dimethyl-isoxazol-4-yl)-1,3-dimethyl-3-phenyl-1,3-dihydro-indol-2-one]
65	Cc1noc(C)c1-c1ccc2c(c1)C(c1ccccc1)N(CCN(C)C)C2=O (centres unmarked) [Example 4, 2-(2-Dimethylamino-ethyl)-5-(3,5-dimethyl-isoxazol-4-yl)-3-phenyl-2,3-dihydro-isoindol-1-one]
75	Cc1noc(C)c1-c1ccc2c(c1)C(c1ccccc1)N(C(C)C)C2=O (centres unmarked) [Example 12, 5-(3,5-Dimethyl-isoxazol-4-yl)-2-isopropyl-3-phenyl-2,3-dihydro-isoindol-1-one]
